Source: patent publication US20200031793A1, “Synthesis of Thapsigargin, Nortrilobolide, and Analogs Thereof” (priority 2017, published 2020)

Experiments:
[1] = system: sarco/endoplasmic reticulum Ca^2+-ATPases (SERCAs); settings: cited from earlier work; for inhibition of sarco/endoplasmic reticulum Ca^2+-ATPases (SERCAs): qualitative statement, no own test

| melting point [°C] | Compound | inhibition of sarco/endoplasmic reticulum Ca^2+-ATPases (SERCAs) [1] | inhibition of Sarco/endoplasmic reticulum Ca^2+-ATPase compared with thapsigargin (1) ([1]; relative to 1 (thapsigargin)) |
| --- | --- | --- | --- |
| – | thapsigargin | highly selective subnanomolar inhibitor | – |
| 176.1 to 178.5 | CC1=C2[C@@H]3OC(=O)[C@@](C)(O[Si](C)(C)C)[C@@]3(O)[C@H](OCc3ccccc3)C[C@](C)(O)[C@H]2C[C@H]1O[Si](C)(C)C(C)(C)C | – | – |
| – | C/C=C(/C)C(=O)O[C@@H]1C[C@H]2C(=C1C)[C@@H]1OC(=O)[C@@](C)(O)[C@@]1(O)[C@@H](OC(=O)CCC)C[C@]2(C)OC(C)=O [nortrilobolide] | potent inhibitor | equipotent inhibition |
